In the case of `CC1(C)[C@@H]2CC3[C@H](C(=O)NCC(N)=O)[C@@]3(C)C[C@@H]21` (stereo partly drawn) [Example 4, (1S,3S,4S,7R)-N-(2-amino-2-oxoethyl)-3,8,8-trimethyltricyclo [5.1.0.0^3,5]octane-4-carboxamide], the melting point is reported as 169.2 to 169.7 °C.
Molecule `CC1(C)[C@@H]2CC3[C@H](C(N)=O)[C@@]3(C)C[C@@H]21` (stereo partly drawn) [Example 3, (1S,3S,4S,7R)-3,8,8-trimethyltricyclo[5.1.0.0^3,5]octane-4-carboxamide] has a melting point of 121.5 to 122.5 °C.
`CC1(C)[C@@H]2CC3[C@H](C(=O)O)[C@@]3(C)C[C@@H]21` (stereo partly drawn) (hydrate or solvate) [Example 1, (1S,3S,4S,7R)-3,8,8-trimethyltricyclo[5.1.0.0^3,5]octane-4-carboxylic acid] gave a melting point of 86 °C.

Reference: patent US20040209859A1, “Fused cycloalkyl amides and acids and their therapeutic applications” (priority 2002, published 2004)
